In patent publication US20140162308A1, “DEVICE AND METHOD FOR I[…] AND COUNTING MICROBES AND DETERMINING ANTIMICROBIAL SENSITIVITY” (Texas State University, priority 2011, published 2014):

Test system: E. Coli B
Experiment: Antimicrobial sensitivity test: resistance signature of the microbial sample after adding the antibiotic
Type: cell-based
Details: 0.9 mL of 10^3 CFU/mL E. Coli B in LB Broth + 0.1 mL antibiotic, room temperature; slope of control samples remains negative; FIGS. 7A-7D
Method: FIGS. 7A-7D depict signatures of microbial sample of 0.9 mL of a concentration of 10^3 CFU/mL of two-hour E. Coli B treated with 0.1 mL of antibiotics or antimicrobials and control samples in the absence thereof. What is common to all FIGS. 7A-7D is the slope for signatures with antibiotics or antimicrobials become positive, i.e., the resistance component of total impedance of the microbial sample increases, upon addition of the antibiotic or antimicrobial. The slope of the control samples remains negative.
In further detail, a difference in the degree of the slope change for the signature can be observed. […]
An overnight bacterial culture of E. coli B with a concentration of around 10^9 cells which had attained room temperature were diluted using LB Broth which had also attained room temperature to a final concentration of 10^3 cells. 0.9 ml of this solution was then placed into one sensor well which was connected to lead #1 of a reader unit. An additional 0.9 ml of the bacteria was placed into a second sensor well which was connected to lead#2 of a reader unit. […]
An overnight bacterial culture of E. coli B with a concentration of around 10^9 cells that had attained room temperature were diluted to a final concentration of 10^3 cells. 0.9 ml of this solution was then placed into a first sensor well which was connected to lead #1 of a reader unit. […]

Question: `Cc1cc(NS(=O)(=O)c2ccc(N)cc2)no1` [sulfamethoxazole] was tested. Which “slope of the signature (resistance component of total impedance of the microbial sample) upon addition of the antibiotic or antimicrobial” value did it give?
Answer: steeper than for azithromycin
